Experimental data taken from patent US20060069132A1, “Azolecarboxamide herbicides” (priority 2004, published 2006).

Tests used:
large crabgrass [1] = experiment: Test C pre-/postemergence herbicide test; type: in vivo, Digitaria sanguinalis; details: for Plant response rating, Crabgrass, Large: preemergence; for Crabgrass, Large plant response rating: Preemergence, 500 g ai/ha, scale 0 to 100, 0 no effect, 100 complete control
Outline: (§1)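 Pre/post spray; non-phytotoxic solvent + surfactant. Post-timing 1–4 leaves, 2–18 cm. Read-out: visual % control vs untreated, day 12–14, greenhouse.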

giant foxtail [2] = experiment: Test A pre-/postemergence herbicide test; type: in vivo, Setaria faberi
Outline: (§2)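 Greenhouse injury scoring (0–100, complete control = 100) at approximately ten days follows simultaneous pre- and postemergence application. Soil received a directed spray after seeding; seedlings of 2–10 cm at the one- to two-leaf stage were sprayed to runoff.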

kochia = experiment: Test C pre-/postemergence herbicide test; type: in vivo, Kochia scoparia; details: for Plant response rating, Kochia: preemergence; for Kochia plant response rating: Preemergence, 500 g ai/ha, scale 0 to 100, 0 no effect, 100 complete control
Outline: as §1

bermudagrass = experiment: Test C pre-/postemergence herbicide test; type: in vivo, Cynodon dactylon; details: for Plant response rating, Bermudagrass: preemergence; for Bermudagrass plant response rating: Preemergence, 500 g ai/ha
Outline: as §1

soybean = experiment: Test C pre-/postemergence herbicide test; type: in vivo, Glycine max; details: for Plant response rating, Soybean: preemergence; for Soybean plant response rating: Preemergence, 500 g ai/ha, scale 0 to 100, 0 no effect, 100 complete control
Outline: as §1

lambsquarters = experiment: Test C pre-/postemergence herbicide test; type: in vivo, Chenopodium album; details: for Plant response rating, Lambsquarters: preemergence; for Lambsquarters plant response rating: Preemergence, 500 g ai/ha, scale 0 to 100, 0 no effect, 100 complete control
Outline: as §1

large crabgrass [3] = experiment: Test A pre-/postemergence herbicide test; type: in vivo, Digitaria sanguinalis
Outline: as §2

barnyardgrass = experiment: Test A pre-/postemergence herbicide test; type: in vivo, Echinochloa crus-galli
Outline: as §2

[4] = test system: common (oilseed) sunflower; experiment: Test C pre-/postemergence herbicide test; type: in vivo, Helianthus annuus; details: for Plant response rating, Sunflower: preemergence; for Sunflower plant response rating: Preemergence, 500 g ai/ha, scale 0 to 100, 0 no effect, 100 complete control
Outline: as §1

giant foxtail [5] = experiment: Test C pre-/postemergence herbicide test; type: in vivo, Setaria faberi; details: for Plant response rating, Foxtail, Giant: preemergence; for Foxtail, Giant plant response rating: Preemergence, 500 g ai/ha, scale 0 to 100, 0 no effect, 100 complete control
Outline: as §1

[6] = 125 g ai/ha, scale 0 (no effect) to 100 (complete control), visual, 12 to 14 days
[7] = Postemergence, 500 g ai/ha, 0 to 100 scale, 0 no effect, 100 complete control
[8] = Postemergence, 2000 g ai/ha, 0 to 100 scale, 0 no effect, 100 complete control
[9] = Preemergence, 2000 g ai/ha, visual rating, 0 to 100 scale (0 no effect, 100 complete control)
[10] = preemergence, 500 g ai/ha, visual injury, 0 to 100 scale (0 no effect, 100 complete control)
[11] = 62 g ai/ha, scale 0 to 100, 0 no effect, 100 complete control
[12] = scale 0 to 100, 0 no effect, 100 complete control

CC(=NO)c1cccc(NC(=O)c2sc(C(C)(C)C)nc2C)c1 [Compound 195]
Plant response rating, Crabgrass, Large (large crabgrass [1]; 62 g ai/ha, scale 0 to 100): 0 | Plant response rating, Crabgrass, Large (large crabgrass [1]; [6]): 0 | Plant response rating, Crabgrass, Large (large crabgrass [1]; 250 g ai/ha, scale 0-100): 5 | Crabgrass, Large plant response rating (large crabgrass [1]): 70 | Foxtail, Giant plant response rating (giant foxtail [2]; [7]): 5 | Plant response rating, Foxtail, Giant (giant foxtail [2]; [8]): 0 | Foxtail, Giant plant response rating (giant foxtail [2]; [9]): 45 | Foxtail, Giant plant response rating (giant foxtail [2]; [10]): 30 | Plant response rating, Kochia (kochia; 62 g ai/ha, scale 0 to 100): 0 | Plant response rating, Kochia (kochia; [6]): 0 | Plant response rating, Kochia (kochia; 250 g ai/ha, scale 0-100): 10 | Kochia plant response rating (kochia): 85 | Plant response rating, Bermudagrass (bermudagrass; [11]): 0 | Plant response rating, Bermudagrass (bermudagrass; [6]): 0 | Plant response rating, Bermudagrass (bermudagrass; 250 g ai/ha, scale 0-100): 30 | Bermudagrass plant response rating (bermudagrass; [12]): 65 | Plant response rating, Soybean (soybean; 62 g ai/ha, scale 0 to 100): 0 | Plant response rating, Soybean (soybean; [6]): 0 | Plant response rating, Soybean (soybean; 250 g ai/ha, scale 0-100): 0 | Soybean plant response rating (soybean): 0 | Plant response rating, Lambsquarters (lambsquarters; 62 g ai/ha, scale 0 to 100): 0 | Plant response rating, Lambsquarters (lambsquarters; [6]): 0 | Plant response rating, Lambsquarters (lambsquarters; 250 g ai/ha, scale 0-100): 10 | Lambsquarters plant response rating (lambsquarters): 95 | Crabgrass, Large plant response rating (large crabgrass [3]; [7]): 10 | Plant response rating, Crabgrass, Large (large crabgrass [3]; [8]): 25 | Crabgrass, Large plant response rating (large crabgrass [3]; [9]): 95 | Crabgrass, Large plant response rating (large crabgrass [3]; [10]): 75 | Barnyardgrass plant response rating (barnyardgrass; [7]): 15 | Plant response rating, Barnyardgrass (barnyardgrass; [8]): 50 | Barnyardgrass plant response rating (barnyardgrass; [9]): 45 | Barnyardgrass plant response rating (barnyardgrass; [10]): 20 | Plant response rating, Sunflower ([4]; 62 g ai/ha, scale 0 to 100): 0 | Plant response rating, Sunflower [4, 6]: 0 | Plant response rating, Sunflower ([4]; 250 g ai/ha, scale 0-100): 0 | Sunflower plant response rating [4]: 10 | Plant response rating, Foxtail, Giant (giant foxtail [5]; 62 g ai/ha, scale 0 to 100): 0 | Plant response rating, Foxtail, Giant (giant foxtail [5]; [6]): 0 | Plant response rating, Foxtail, Giant (giant foxtail [5]; 250 g ai/ha, scale 0-100): 0 | Foxtail, Giant plant response rating (giant foxtail [5]): 20

CCNC(=O)c1cccc(NC(=O)c2sc(C(C)(C)C)nc2C)c1 [Compound 198]
Plant response rating, Crabgrass, Large (large crabgrass [1]; 62 g ai/ha, scale 0 to 100): 80 | Plant response rating, Crabgrass, Large (large crabgrass [1]; [6]): 85 | Plant response rating, Crabgrass, Large (large crabgrass [1]; 250 g ai/ha, scale 0-100): 95 | Crabgrass, Large plant response rating (large crabgrass [1]): 95 | Foxtail, Giant plant response rating (giant foxtail [2]; [7]): 30 | Plant response rating, Foxtail, Giant (giant foxtail [2]; [8]): 65 | Foxtail, Giant plant response rating (giant foxtail [2]; [9]): 95 | Foxtail, Giant plant response rating (giant foxtail [2]; [10]): 90 | Plant response rating, Kochia (kochia; 62 g ai/ha, scale 0 to 100): 50 | Plant response rating, Kochia (kochia; [6]): 80 | Plant response rating, Kochia (kochia; 250 g ai/ha, scale 0-100): 100 | Kochia plant response rating (kochia): 100 | Plant response rating, Bermudagrass (bermudagrass; [11]): 60 | Plant response rating, Bermudagrass (bermudagrass; [6]): 85 | Plant response rating, Bermudagrass (bermudagrass; 250 g ai/ha, scale 0-100): 100 | Bermudagrass plant response rating (bermudagrass; [12]): 100 | Plant response rating, Soybean (soybean; 62 g ai/ha, scale 0 to 100): 0 | Plant response rating, Soybean (soybean; [6]): 0 | Plant response rating, Soybean (soybean; 250 g ai/ha, scale 0-100): 0 | Soybean plant response rating (soybean): 25 | Plant response rating, Lambsquarters (lambsquarters; 62 g ai/ha, scale 0 to 100): 85 | Plant response rating, Lambsquarters (lambsquarters; [6]): 100 | Plant response rating, Lambsquarters (lambsquarters; 250 g ai/ha, scale 0-100): 100 | Lambsquarters plant response rating (lambsquarters): 100 | Crabgrass, Large plant response rating (large crabgrass [3]; [7]): 20 | Plant response rating, Crabgrass, Large (large crabgrass [3]; [8]): 65 | Crabgrass, Large plant response rating (large crabgrass [3]; [9]): 90 | Crabgrass, Large plant response rating (large crabgrass [3]; [10]): 80 | Barnyardgrass plant response rating (barnyardgrass; [7]): 45 | Plant response rating, Barnyardgrass (barnyardgrass; [8]): 80 | Barnyardgrass plant response rating (barnyardgrass; [9]): 90 | Barnyardgrass plant response rating (barnyardgrass; [10]): 55 | Plant response rating, Sunflower ([4]; 62 g ai/ha, scale 0 to 100): 0 | Plant response rating, Sunflower [4, 6]: 0 | Plant response rating, Sunflower ([4]; 250 g ai/ha, scale 0-100): 10 | Sunflower plant response rating [4]: 20 | Plant response rating, Foxtail, Giant (giant foxtail [5]; 62 g ai/ha, scale 0 to 100): 0 | Plant response rating, Foxtail, Giant (giant foxtail [5]; [6]): 10 | Plant response rating, Foxtail, Giant (giant foxtail [5]; 250 g ai/ha, scale 0-100): 60 | Foxtail, Giant plant response rating (giant foxtail [5]): 100
